Assays:
lambsquarters = assay: Test D postemergence; type: in vivo, Chenopodium album
Source text: (§1) Seeds of plant species selected from bluegrass (annual bluegrass, Poa annua), blackgrass (Alopecurus myosuroides), canarygrass (littleseed canarygrass, Phalaris minor), chickweed (common chickweed, Stellaria media), galium (catchweed bedstraw, Galium aparine), bromegrass, downy (downy bromegrass, Bromus tectorum), field poppy (Papaver rhoeas), field violet (Viola arvensis), green foxtail (Setaria viridis), deadnettle (henbit deadnettle, Lamium amplexicaule), Italian ryegrass (Lolium multiflorum), kochia (Kochia scoparia), lambsquarters (Chenopodium album), oilseed rape (Brassica napus), pigweed (Amaranthus retroflexus), chamomile (scentless chamomile, Matricaria inodora), Russian thistle (Salsola kali), speedwell (bird's-eye speedwell, Veronica persica), spring barley (Hordeum vulgare), spring wheat (Triticum aestivum), wild buckwheat (Polygonum convolvulus), wild mustard (Sinapis arvensis), wild oat (Avena fatua), wild radish (Raphanus raphanistrum), windgrass (Apera spica-venti), winter barley (Hordeum vulgare), and winter wheat (Triticum aestivum) were planted into a silt loam soil and treated preemergence with test chemicals formulated in a non-phytotoxic solvent mixture which included a surfactant.
(§2) At the same time, these species were planted in pots containing Redi-Earth® planting medium (Scotts Company, 14111 Scottslawn Road, Marysville, Ohio 43041) comprising spaghnum peat moss, vermiculite, wetting agent and starter nutrients and treated with postemergence applications of the test chemicals formulated in the same manner. Plants ranged in height from 2 to 18 cm (1- to 4-leaf stage). Treated plants and controls were maintained in a controlled growth environment for 7 to 21 days after which time all species were compared to controls and visually evaluated. Plant response ratings, summarized in Table D, are based on a scale of 0 to 100 where 0 is no effect and 100 is complete control. A dash (-) response means no test result.

wild oat = assay: Test D postemergence; type: in vivo, Avena fatua
Source text: as §1, §2

bromegrass, downy = assay: Test D postemergence; type: in vivo, Bromus tectorum
Source text: as §1, §2

chamomile = assay: Test D preemergence; type: in vivo, Matricaria inodora
Source text: as §1, §2

wild radish = assay: Test D preemergence; type: in vivo, Raphanus raphanistrum
Source text: as §1, §2

oilseed rape = assay: Test D preemergence; type: in vivo, Brassica napus
Source text: as §1, §2

windgrass = assay: Test D preemergence; type: in vivo, Apera spica-venti
Source text: as §1, §2

Italian ryegrass = assay: Test D preemergence; type: in vivo, Lolium multiflorum
Source text: as §1, §2

winter wheat = assay: Test D preemergence; type: in vivo, Triticum aestivum
Source text: as §1, §2

spring wheat = assay: Test D preemergence; type: in vivo, Triticum aestivum
Source text: as §1, §2

wild mustard = assay: Test D postemergence; type: in vivo, Sinapis arvensis
Source text: as §1, §2

[1] = 31 g ai/ha, scale 0 to 100 (0 no effect, 100 complete control)
[2] = 62 g ai/ha, scale 0 to 100 (0 no effect, 100 complete control)
[3] = 125 g ai/ha, scale 0 to 100 (0 no effect, 100 complete control)
[4] = 16 g ai/ha, scale 0 (no effect) to 100 (complete control)
[5] = 31 g ai/ha, scale 0 (no effect) to 100 (complete control)

Fc1cccc(Oc2ncc(Cl)cn2)c1-n1cc(C(F)F)nn1 [Compound 141, 5-chloro-2-[2-[4-(difluoromethyl)-1H-1,2,3-triazol-1-yl]-3-fluorophenoxy]pyrimidine]
pest or weed control at 16 g/ha (lambsquarters; Chenopodium album, post-emergence, 16 g ai/ha, scale 0-100, read-out: Plant response rating, Lambsquarters): 80% | pest or weed control at 31 g/ha (lambsquarters; Chenopodium album, post-emergence, 31 g ai/ha, scale 0 to 100 (0 no effect, 100 complete control), read-out: Plant response rating, Lambsquarters): 95% | pest or weed control at 62 g/ha (lambsquarters; Chenopodium album, post-emergence, 62 g ai/ha, scale 0 to 100 (0 no effect, 100 complete control), read-out: Plant response rating, Lambsquarters): 95% | pest or weed control at 125 g/ha (lambsquarters; Chenopodium album, post-emergence, 125 g ai/ha, scale 0 to 100 (0 no effect, 100 complete control), read-out: Plant response rating, Lambsquarters): 98% | pest or weed control at 16 g/ha (wild oat; Avena fatua, post-emergence, 16 g ai/ha, scale 0-100, read-out: Plant response rating, Oat, Wild): 5% | pest or weed control at 31 g/ha (wild oat; Avena fatua, post-emergence, 31 g ai/ha, scale 0 to 100 (0 no effect, 100 complete control), read-out: Plant response rating, Oat, Wild): 10% | pest or weed control at 62 g/ha (wild oat; Avena fatua, post-emergence, 62 g ai/ha, scale 0 to 100 (0 no effect, 100 complete control), read-out: Plant response rating, Oat, Wild): 15% | pest or weed control at 125 g/ha (wild oat; Avena fatua, post-emergence, 125 g ai/ha, scale 0 to 100 (0 no effect, 100 complete control), read-out: Plant response rating, Oat, Wild): 30% | pest or weed control at 16 g/ha (bromegrass, downy; Bromus tectorum, post-emergence, Postemergence, 16 g ai/ha, scale 0 to 100 (0 no effect, 100 complete control), read-out: Plant response rating, Bromegrass, Downy): 15% | pest or weed control at 31 g/ha (bromegrass, downy; Bromus tectorum, post-emergence, Postemergence, 31 g ai/ha, scale 0 to 100 (0 no effect, 100 complete control), read-out: Plant response rating, Bromegrass, Downy): 20% | pest or weed control at 62 g/ha (bromegrass, downy; Bromus tectorum, post-emergence, Postemergence, 62 g ai/ha, scale 0 to 100 (0 no effect, 100 complete control), read-out: Plant response rating, Bromegrass, Downy): 30% | pest or weed control at 125 g/ha (bromegrass, downy; Bromus tectorum, post-emergence, Postemergence, 125 g ai/ha, scale 0 to 100 (0 no effect, 100 complete control), read-out: Plant response rating, Bromegrass, Downy): 45% | pest or weed control at 16 g/ha (chamomile; Tripleurospermum inodorum, pre-emergence, 16 g ai/ha, scale 0 (no effect) to 100 (complete control), read-out: Plant response rating, Chamomile): 90% | pest or weed control at 31 g/ha (chamomile; Tripleurospermum inodorum, pre-emergence, 31 g ai/ha, scale 0-100, read-out: Plant response rating, Chamomile): 100% | pest or weed control at 62 g/ha (chamomile; Tripleurospermum inodorum, pre-emergence, 62 g ai/ha, scale 0-100, read-out: Plant response rating, Chamomile): 70% | pest or weed control at 125 g/ha (chamomile; Tripleurospermum inodorum, pre-emergence, 125 g ai/ha, scale 0-100, read-out: Plant response rating, Chamomile): 100% | pest or weed control at 16 g/ha (wild radish; Raphanus raphanistrum, pre-emergence, 16 g ai/ha, scale 0 (no effect) to 100 (complete control), read-out: Plant response rating, Radish, Wild): 40% | pest or weed control at 31 g/ha (wild radish; Raphanus raphanistrum, pre-emergence, 31 g ai/ha, scale 0 (no effect) to 100 (complete control), read-out: Plant response rating, Radish, Wild): 98% | pest or weed control at 62 g/ha (wild radish; Raphanus raphanistrum, pre-emergence, 62 g ai/ha, scale 0-100, read-out: Plant response rating, Radish, Wild): 100% | pest or weed control at 125 g/ha (wild radish; Raphanus raphanistrum, pre-emergence, 125 g ai/ha, scale 0-100, read-out: Plant response rating, Radish, Wild): 100% | plant injury at 16 g/ha (oilseed rape; Brassica napus, pre-emergence, 16 g ai/ha, scale 0 (no effect) to 100 (complete control), read-out: Plant response rating, Oilseed Rape): 100% | plant injury at 31 g/ha (oilseed rape; Brassica napus, pre-emergence, 31 g ai/ha, scale 0-100, read-out: Plant response rating, Oilseed Rape): 100% | plant injury at 62 g/ha (oilseed rape; Brassica napus, pre-emergence, 62 g ai/ha, scale 0-100, read-out: Plant response rating, Oilseed Rape): 100% | plant injury at 125 g/ha (oilseed rape; Brassica napus, pre-emergence, 125 g ai/ha, scale 0-100, read-out: Plant response rating, Oilseed Rape): 100% | pest or weed control at 16 g/ha (windgrass; Apera spica-venti, pre-emergence, 16 g ai/ha, scale 0 (no effect) to 100 (complete control), read-out: Plant response rating, Windgrass): 35% | pest or weed control at 31 g/ha (windgrass; Apera spica-venti, pre-emergence, 31 g ai/ha, scale 0 (no effect) to 100 (complete control), read-out: Plant response rating, Windgrass): 70% | pest or weed control at 62 g/ha (windgrass; Apera spica-venti, pre-emergence, 62 g ai/ha, scale 0-100, read-out: Plant response rating, Windgrass): 85% | pest or weed control at 125 g/ha (windgrass; Apera spica-venti, pre-emergence, 125 g ai/ha, scale 0-100, read-out: Plant response rating, Windgrass): 100% | pest or weed control at 16 g/ha (Italian ryegrass; Lolium multiflorum, pre-emergence, 16 g ai/ha, scale 0 (no effect) to 100 (complete control), read-out: Plant response rating, Ryegrass, Italian): 35% | pest or weed control at 31 g/ha (Italian ryegrass; Lolium multiflorum, pre-emergence, 31 g ai/ha, scale 0 (no effect) to 100 (complete control), read-out: Plant response rating, Ryegrass, Italian): 55% | pest or weed control at 62 g/ha (Italian ryegrass; Lolium multiflorum, pre-emergence, 62 g ai/ha, scale 0-100, read-out: Plant response rating, Ryegrass, Italian): 70% | pest or weed control at 125 g/ha (Italian ryegrass; Lolium multiflorum, pre-emergence, 125 g ai/ha, scale 0-100, read-out: Plant response rating, Ryegrass, Italian): 75% | plant injury at 16 g/ha (winter wheat; Triticum aestivum, pre-emergence, 16 g ai/ha, scale 0 (no effect) to 100 (complete control), read-out: Plant response rating, Wheat, Winter): 15% | plant injury at 31 g/ha (winter wheat; Triticum aestivum, pre-emergence, 31 g ai/ha, scale 0 (no effect) to 100 (complete control), read-out: Plant response rating, Wheat, Winter): 20% | plant injury at 62 g/ha (winter wheat; Triticum aestivum, pre-emergence, 62 g ai/ha, scale 0-100, read-out: Plant response rating, Wheat, Winter): 60% | plant injury at 125 g/ha (winter wheat; Triticum aestivum, pre-emergence, 125 g ai/ha, scale 0-100, read-out: Plant response rating, Wheat, Winter): 60% | plant injury at 16 g/ha (spring wheat; Triticum aestivum, pre-emergence, 16 g ai/ha, scale 0 (no effect) to 100 (complete control), read-out: Plant response rating, Wheat, Spring): 25% | plant injury at 31 g/ha (spring wheat; Triticum aestivum, pre-emergence, 31 g ai/ha, scale 0 (no effect) to 100 (complete control), read-out: Plant response rating, Wheat, Spring): 30% | plant injury at 62 g/ha (spring wheat; Triticum aestivum, pre-emergence, 62 g ai/ha, scale 0-100, read-out: Plant response rating, Wheat, Spring): 65% | plant injury at 125 g/ha (spring wheat; Triticum aestivum, pre-emergence, 125 g ai/ha, scale 0-100, read-out: Plant response rating, Wheat, Spring): 75% | pest or weed control at 16 g/ha (wild mustard; Brassica, post-emergence, 16 g ai/ha, scale 0-100, read-out: Plant response rating, Mustard, Wild): 80% | pest or weed control at 31 g/ha (wild mustard; Brassica, post-emergence, 31 g ai/ha, scale 0 to 100 (0 no effect, 100 complete control), read-out: Plant response rating, Mustard, Wild): 100% | pest or weed control at 62 g/ha (wild mustard; Brassica, post-emergence, 62 g ai/ha, scale 0 to 100 (0 no effect, 100 complete control), read-out: Plant response rating, Mustard, Wild): 100% | pest or weed control at 125 g/ha (wild mustard; Brassica, post-emergence, 125 g ai/ha, scale 0 to 100 (0 no effect, 100 complete control), read-out: Plant response rating, Mustard, Wild): 100%

FCc1cccc(Oc2ncc(Cl)cn2)c1-n1cc(I)cn1 [Compound 245]
Plant response rating, Lambsquarters (lambsquarters; 16 g ai/ha, scale 0-100): 65 | Plant response rating, Lambsquarters (lambsquarters; [1]): 80 | Plant response rating, Lambsquarters (lambsquarters; [2]): 85 | Plant response rating, Lambsquarters (lambsquarters; [3]): 95 | Plant response rating, Oat, Wild (wild oat; 16 g ai/ha, scale 0-100): 0 | Plant response rating, Oat, Wild (wild oat; [1]): 0 | Plant response rating, Oat, Wild (wild oat; [2]): 10 | Plant response rating, Oat, Wild (wild oat; [3]): 10 | Plant response rating, Bromegrass, Downy (bromegrass, downy; Postemergence, 62 g ai/ha, scale 0 to 100 (0 no effect, 100 complete control)): 25 | Plant response rating, Bromegrass, Downy (bromegrass, downy; Postemergence, 31 g ai/ha, scale 0 to 100 (0 no effect, 100 complete control)): 20 | Plant response rating, Bromegrass, Downy (bromegrass, downy; Postemergence, 125 g ai/ha, scale 0 to 100 (0 no effect, 100 complete control)): 30 | Plant response rating, Bromegrass, Downy (bromegrass, downy; postemergence, 16 g ai/ha, scale 0 to 100, 0 no effect, 100 complete control): 20 | Plant response rating, Chamomile (chamomile; [4]): 25 | Plant response rating, Chamomile (chamomile; 31 g ai/ha, scale 0-100): 30 | Plant response rating, Chamomile (chamomile; 62 g ai/ha, scale 0-100): 55 | Plant response rating, Chamomile (chamomile; 125 g ai/ha, scale 0-100): 100 | Plant response rating, Radish, Wild (wild radish; [4]): 0 | Plant response rating, Radish, Wild (wild radish; [5]): 0 | Plant response rating, Radish, Wild (wild radish; 125 g ai/ha, scale 0-100): 85 | Plant response rating, Oilseed Rape (oilseed rape; [4]): 0 | Plant response rating, Oilseed Rape (oilseed rape; 31 g ai/ha, scale 0-100): 0 | Plant response rating, Oilseed Rape (oilseed rape; 62 g ai/ha, scale 0-100): 30 | Plant response rating, Oilseed Rape (oilseed rape; 125 g ai/ha, scale 0-100): 100 | Plant response rating, Windgrass (windgrass; [4]): 5 | Plant response rating, Windgrass (windgrass; [5]): 15 | Plant response rating, Windgrass (windgrass; 125 g ai/ha, scale 0-100): 60 | Plant response rating, Ryegrass, Italian (Italian ryegrass; [4]): 15 | Plant response rating, Ryegrass, Italian (Italian ryegrass; [5]): 15 | Plant response rating, Ryegrass, Italian (Italian ryegrass; 125 g ai/ha, scale 0-100): 40 | Plant response rating, Wheat, Winter (winter wheat; [4]): 10 | Plant response rating, Wheat, Winter (winter wheat; [5]): 15 | Plant response rating, Wheat, Winter (winter wheat; 125 g ai/ha, scale 0-100): 30 | Plant response rating, Wheat, Spring (spring wheat; [4]): 5 | Plant response rating, Wheat, Spring (spring wheat; [5]): 10 | Plant response rating, Wheat, Spring (spring wheat; 125 g ai/ha, scale 0-100): 20 | Plant response rating, Mustard, Wild (wild mustard; 16 g ai/ha, scale 0-100): 80 | Plant response rating, Mustard, Wild (wild mustard; [1]): 70 | Plant response rating, Mustard, Wild (wild mustard; [2]): 100 | Plant response rating, Mustard, Wild (wild mustard; [3]): 98

Reference: patent publication US9695155B2, “Herbicidal substituted pyrimidinyloxy benzene compounds” (E. I. DU PONT DE NEMOURS AND COMPANY, priority 2013, dated 2017)
